One assay has as its target T1, H3 receptor (Rattus norvegicus, UniProt Q9QYN8).
T1 construct: ½-maximal H3 receptor occupancy in the brain following intraperitoneal administration; from tissue; host or cells: brain of dosed animals
Put plainly: Ex vivo binding: H3 receptor occupancy in the brain following intraperitoneal administration. The text has this: (§1) The percent reduction in food intake by rats two hours after intraperitoneal administration of each compound is shown in Table 5. […] In Table 5, * indicates a significant decrease in food intake compared to the vehicle-treated rats (t-test, p<0.05). The ex vivo binding values in Table 5 represent the drug dose required to obtain ½-maximal H3 receptor occupancy in the brain following intraperitoneal administration. The dose values shown in Table 5 represent the dosage of drug utilized during the food intake studies. In all cases, the tested dose exceeded the amount needed to obtain ½-maximal H3 receptor occupancy in the brain.

Another assay addresses T2, Histamine H3 receptor (Rattus norvegicus, UniProt Q9QYN8).
T2 construct: The cerebral cortical tissues were harvested and frozen on dry ice; from tissue; host or cells: cerebral cortex membranes of male Sprague-Dawley rats
Put plainly: Histamine H3 receptor binding analysis, [3H]-Nα-methylhistamine competition in rat cerebral cortical membranes, with and without GTPγS. Particulars: for Ki Ratio (−/+): Ki without GTPγS / Ki with GTPγS; for remaining activity at 0.0003 µM: read-out: percent of [3H]-Nα-methylhistamine bound (mean), 0.3 nM of compound; for remaining activity at 0.001 µM: read-out: percent of [3H]-Nα-methylhistamine bound (mean), 1 nM of compound; for remaining activity at 0.003 µM: read-out: percent of [3H]-Nα-methylhistamine bound (mean), 3 nM of compound; for remaining activity at 0.01 µM: read-out: percent of [3H]-Nα-methylhistamine bound (mean), 10 nM of compound; for remaining activity at 0.03 µM: read-out: percent of [3H]-Nα-methylhistamine bound (mean), 30 nM of compound; for remaining activity at 0.1 µM: read-out: percent of [3H]-Nα-methylhistamine bound (mean), 100 nM of compound; for remaining activity at 1 µM: read-out: percent of [3H]-Nα-methylhistamine bound (mean), 1000 nM of compound; for remaining activity at 10 µM: read-out: percent of [3H]-Nα-methylhistamine bound (mean), 10000 nM of compound.

The next assay has as its system Sprague-Dawley rats. Briefly: Food intake study in Sprague-Dawley rats. Conditions: for effect on food consumption by rats: two hours after intraperitoneal administration; for cumulative food intake, mean (g) ± sem: 10 mg/kg i.p., rats. Format: in vivo, rat. On the procedure: The compounds summarized in Table 3 were examined for their ability to suppress food consumption by adult Sprague-Dawley rats. Male Sprague Dawley rats were purchased from Harlan Laboratories of Indianapolis, Ind. Rats were housed one per cage and maintained on a 12 hour light/dark schedule (lights-out at 12:30 p.m.) with ad libitum access to powdered Teklad Mouse/Rat Diet 7012 (available from Harlan Laboratories of Indianapolis, Ind.) and water. Rats were acclimated to laboratory conditions and food for 1 to 2 weeks prior to initiating food intake studies. On the day of experiments, test compounds were solubilized or suspended in vehicle/carrier and administered to rats (i.p. or p.o.) 30 to 60 minutes prior to the onset of the dark cycle. Food intake was determined at 1, 2, 4, and 24 hours following the onset of the dark cycle. Alternatively, rats were fasted (water provided) for 24 hours prior to evaluating the effects of compounds on food intake. For these studies, compounds or vehicle/carrier were administered and rats were placed in standard small animal metabolism chambers with ad ibitum access to powdered Teklad Mouse/Rat Diet 7012 and water. Food intake was determined at 2 and 4 hours following the onset of feeding.
Data is cumulative food intake in grams, mean±sem. In the table, * indicates a significant decrease in food intake compared to the vehicle-treated rats (t-test, p<0.05).
as §1

The mark [1] stands for this setting: GTPγS-treated receptor preparation (G-protein uncoupled), read-out: Ki (+) GTPγS.
[2] abbreviates: untreated receptor preparation (mixture of coupled and uncoupled H3 receptors), read-out: Ki (−) GTPγS.

Read-outs that look alike come from different tables or passages of the source. Marks after values point to notes of the source that are not given here.

T1 sequence (Q9QYN8 whole entry): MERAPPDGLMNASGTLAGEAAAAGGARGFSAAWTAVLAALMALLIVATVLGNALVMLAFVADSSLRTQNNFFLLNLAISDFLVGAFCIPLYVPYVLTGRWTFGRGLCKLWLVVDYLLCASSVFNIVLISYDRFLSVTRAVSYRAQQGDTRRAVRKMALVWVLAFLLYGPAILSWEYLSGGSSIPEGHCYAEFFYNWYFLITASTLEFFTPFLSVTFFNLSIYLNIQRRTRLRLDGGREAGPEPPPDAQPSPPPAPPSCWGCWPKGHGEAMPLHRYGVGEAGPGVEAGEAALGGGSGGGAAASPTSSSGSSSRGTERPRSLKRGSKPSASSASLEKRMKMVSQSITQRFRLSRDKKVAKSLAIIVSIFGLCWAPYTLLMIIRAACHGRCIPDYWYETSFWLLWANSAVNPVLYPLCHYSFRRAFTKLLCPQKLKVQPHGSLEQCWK
T2 sequence (Q9QYN8 whole entry): as above
Procedure for Histamine H3 receptor: A histamine H3 receptor binding analysis to determine the affinity of various imidazole derivatives for G-protein uncoupled receptors was performed as follows. […] Animals were acclimated to laboratory conditions for a minimum of one week prior to tissue harvesting.
Animals were anesthetized by NO2 inhalation and euthanized by rapid decapitation. The cerebral cortical tissues were harvested and frozen on dry ice. Rat corticies were mechanically homogenized using a Tissue Tearer in 25 mM Tris buffer (pH 7.5 at 4° C.) containing: EDTA (10 mM), phenylmethylsulfonyl fluoride (0.1 mM), chymostatin and leupeptin (each 0.2 mg/50 mL). The homogenate was centrifuged in a Sorvall centrifuge at 40,000×g for 30 minutes. The pellet was re-suspended in 25 ml water and lysed on ice for 30 minutes. The homogenate was then re-centrifuged and the membrane lysis was repeated. The membranes were centrifuged and the final membrane pellets were resuspended in 14 volumes of water to yield approximately 200 μg protein/100 μl final concentration. The suspension was stored frozen at −80° C. prior to use. Protein concentrations were determined using the Coomassie Plus Protein Assay (available from Pierce of Rockford, Ill.).
GTPγS causes dissociation of G-protein from receptors. Data are shown as percent of [^3H]-N^α-methylhistamine bound (mean) for each table.

What is called Ki is a dissociation constant, usually derived from enzyme kinetics or from competition with a known ligand. In the case of `N[C@H](/C=C\CCc1c[nH]cn1)CC1CCCCC1` [Compound 4, 4-(((5S)(3Z)-5-amino-6-cyclohexyl)hex-3-en-1-yl)imidazole], the “Ex Vivo Binding (drug dose required to obtain ½-maximal H3 receptor occupancy in the brain)” value (from here on “Ex Vivo Binding”) on H3 receptor is on record as “˜15 mg/kg”. The Ki on Histamine H3 receptor (setting [1]) amounted to 1.9 nM; on Histamine H3 receptor (setting [2]), 11.3 nM. Also, the “Ki Ratio (−/+)” value on Histamine H3 receptor amounted to 6.0.
Regarding `O=C(N[C@@H]1C[C@H]1c1c[nH]cn1)OCCC1CCCCC1` [Compound 1, 4-((1R,2R)-trans-2-(O-(2-cyclohexylethyl)carboxamido)cyclopropyl)imidazole], on H3 receptor, the “Ex Vivo Binding” value came out at 3.1 ± 1.3 mg/kg. In addition, on Histamine H3 receptor (setting [1]), the Ki is 7.2 nM. Moreover, on Histamine H3 receptor, the “Ki Ratio (−/+)” value was determined as 4.1. On Histamine H3 receptor (Tris), the remaining activity at 0.0003 µM was 108%, the remaining activity at 0.001 µM turned out to be 95.7%, the remaining activity at 0.003 µM came to 102% and the remaining activity at 0.01 µM amounted to 102%. Also, at Histamine H3 receptor (Tris), the remaining activity at 0.03 µM was determined as 88.4%, the remaining activity at 0.1 µM stood at 67.9%, the remaining activity at 1 µM was 12.6% and the remaining activity at 10 µM was -1.6%. On Histamine H3 receptor (Tris-GTPγS), the remaining activity at 0.0003 µM turned out to be 103%, the remaining activity at 0.001 µM came to 98.3%, the remaining activity at 0.003 µM worked out at 93.3% and the remaining activity at 0.01 µM is 76.4%. On Histamine H3 receptor (Tris-GTPγS), the remaining activity at 0.03 µM amounted to 42.6%, the remaining activity at 0.1 µM came out at 23.8%, the remaining activity at 1 µM amounted to 4% and the remaining activity at 10 µM is 1.3%. Besides, the “binding to GTPγS-treated cortical membrane preparation compared with non-treated preparation” value at Histamine H3 receptor (result in words) is “higher apparent affinity”. In addition, the Ki at Histamine H3 receptor (setting [2]) stood at 29.3 nM.
`CC(C)(C)CCC#C[C@@H]1C[C@H]1c1c[nH]cn1` [Compound 6, (1R,2R)-trans-4-(2-(5,5-dimethylhex-1-ynyl)cyclopropyl) imidazole]: the “Ex Vivo Binding” value at H3 receptor is reported as 0.08 ± 0.03 mg/kg. The results for the Ki at Histamine H3 receptor (setting [1]) and at Histamine H3 receptor (setting [2]) were 0.24 nM and 0.41 nM, respectively. Further, the “Ki Ratio (−/+)” value at Histamine H3 receptor was found to be 1.7. For the same compound, the “effect on food consumption by rats” value in the assay on Sprague-Dawley rats (result in words) is “no measurable effect”.
As for `Fc1ccc(C(OCCCc2c[nH]cn2)c2ccc(F)cc2)cc1` [Compound 8, 3-(1H-imidazol-4-yl)propyl-di(p-fluorophenyl)-methyl ether], on H3 receptor, the “Ex Vivo Binding” value is listed as 5.6 ± 0.12 mg/kg. For the same compound, the Ki is 7.8 nM on Histamine H3 receptor (setting [1]) and 18.2 nM at Histamine H3 receptor (setting [2]). Moreover, the “Ki Ratio (−/+)” value on Histamine H3 receptor came out at 2.3.
Turning to `O=C(N[C@@H]1C[C@H]1c1c[nH]cn1)OCC1CCCCC1` [Compound 3, 4-((1R,2R)-trans-2-(O-(2-cyclohexylmethyl)carboxamido)cyclopropyl)imidazole], the “Ex Vivo Binding” value at H3 receptor is listed as 2.6 ± 1.3 mg/kg. For the same compound, the Ki was 4.2 nM on Histamine H3 receptor (Ki (+) GTPγS, GTPγS-treated receptor preparation (G-protein uncoupled)); 10.1 nM at Histamine H3 receptor (Ki (−) GTPγS, untreated receptor preparation (mixture of coupled and uncoupled H3 receptors)). Also, the “Ki Ratio (−/+)” value on Histamine H3 receptor was determined as 2.4. For the same compound, the “cumulative food intake, mean (g) ± sem” value in the assay with Sprague-Dawley rats (1 hr following onset of dark cycle) is 1.8 ± 0.3* g; in the assay on Sprague-Dawley rats (2 hr following onset of dark cycle), 4.4 ± 0.2* g; in the assay on Sprague-Dawley rats (4 hr following onset of dark cycle), 7.1 ± 0.5* g; in the assay on Sprague-Dawley rats (24 hr following onset of dark cycle), 17.4 ± 1.2* g. The “effect of a single administration on food consumption” value in the assay with Sprague-Dawley rats (single administration, up to 24 hours, result in words) was “significant reduction of food consumption”.
Regarding `O=C(N[C@@H]1C[C@H]1c1c[nH]cn1)OCc1c(Cl)cccc1Cl` [Compound 7, 4-((1R,2R)-trans-2-(O-(2,6-dichlorophenylmethyl)carboxamido)cyclopropyl)imidazole], the “Ex Vivo Binding” value on H3 receptor is reported as 2.9 ± 1.3 mg/kg. The Ki at Histamine H3 receptor (setting [1]) was 2.3 nM; at Histamine H3 receptor (setting [2]), 3.4 nM. Moreover, the “Ki Ratio (−/+)” value on Histamine H3 receptor was determined as 1.5. In the assay with Sprague-Dawley rats (result in words), the “effect on food consumption by rats” value was “no measurable effect”.
The corresponding values for `CC(C)(C)CCOC(=O)N[C@@H]1C[C@H]1c1c[nH]cn1` [Compound 9, 4-((1R,2R)-trans-2-(O-(3,3-dimethyl-but-1-yl)carboxamido)cyclopropyl)imidazole] are 3.7 ± 0.4 mg/kg, 4.5 nM, 7.3 nM, 1.6 and “no measurable effect”.
As for `O=C(CCCCC1CCCCC1)N1CCC(c2c[nH]cn2)CC1` [Compound 5, 4-(N-(5-cyclohexylpentan-1-one-1-yl)piperidin-4-yl)imidazole], on H3 receptor, the “Ex Vivo Binding” value is recorded as 8.0 ± 1.3 mg/kg.

For the origin of these results see patent publication US20030069295A1, “Use of histamine H3 receptor inverse agonists for the control of appetite and treatment of obesity” (Gliatech, Inc., priority 2001, published 2003).
